In patent EP4245832B1, “DETERGENT COMPOSITIONS” (The Procter & Gamble Company, priority 2022, dated 2023):

Assay: Laundry test followed by SPME GC/MS headspace analysis of cotton tracers
Settings: headspace of the perfume ingredient above wet cotton tracers, Ex 1 (PQ22) versus Ex A (nil-PQ22)
Procedure: 100% cotton fabric cut into 30x30cm squares were washed in a mixed cotton/polycotton load of total 3kg in a front load washing machine (Miele 1935) at 40°C cotton short setting, with 2 rinses, using 2.67 mmol/L Ca (15 gpg) water hardness. A 55 ml dose of the respective detergent was added to a dosing cup and placed inside the washing machine. After the wash cycle was finished, the full load was tumbled (using a Miele Novotronic, type: TD7634) for about 1 hour. Table 1: Inventive detergent composition (Ex 1) and comparative laundry detergent composition (Ex A) used in the laundry test:
The load was washed and dried three consecutive times, then placed back into a washing machine After a fourth wash cycle, the wet cotton tracers were separated and packed in aluminium foil until they were ready to be analysed for headspace.
The headspace was analysed using solid […] (SPME) chromatography using the following procedure: • 1. One piece of 4x4 cm cotton tracers were transferred to 25 ml headspace vials. • 2. The fabric samples were equilibrated for 10 minutes at 65°C. • 3. The headspace above the fabrics was sampled via SPME (50/30µm DVB/Carboxen/PDMS) for 5 minutes. • 4. The SPME fiber was subsequently thermally desorbed into the GC. • 5. The analytes were analyzed by GC/MS (GC: Agilent 8890 and MS: Agilent 5977B MS) in full scan mode. The total perfume HS response and perfume headspace composition above the tested legs could be determined.

Compared with “3-(3,3-dimethyl-2,3-dihydro-1H-inden-5-yl)propanal mixt. wth 3-(1,1-dimethyl-2,3-dihydro-1H-inden-5-yl)propanal [Neo Hivernal]”, `C=CCOC(=O)COCCC(C)C` [Allyl amyl glycolate, allyl 2-(isopentyloxy)acetate] is higher in “% increase Ex 1 vs Ex A” value: -58% for the first, 2003% for the second.

Compared with `CC1=CCC2CC1C2(C)C` (stereo not drawn) [Alpha pinene, 2,6,6-trimethylbicyclo(3.1.1)hept-2-ene], `COc1ccc(C=O)cc1` [Anisic aldehyde, 4-methoxybenzaldehyde] is higher in “% increase Ex 1 vs Ex A” value: -33% for the first, 854% for the second.

First: CC(=O)OCc1ccccc1 [Benzyl acetate, benzyl acetate]
Second: COc1ccc2ccccc2c1 [Beta napthol methyl ether, 2-methoxynaphthalene]
The “% increase Ex 1 vs Ex A” value of the first is higher: 1840% for the first, 104% for the second.

Compared with `CC(C)=CCCC(C)CCO` (stereo not shown) [Citronellol, 3,7-dimethyloct-6-en-1-ol], `CC(C)=CCCC(C)CC#N` (stereo not shown) [Citronellyl nitrile, 3,7-dimethyloct-6-enenitrile] is higher in “% increase Ex 1 vs Ex A” value: 108% for the first, 457% for the second.

Going from `CC1/C=C/CCCCCCCCCCC(=O)C1` (stereo not shown) [Delta muscenone, (E)-3-methylcyclopentadec-4-en-1-one] to `CCOC(=O)C1=C(C)C=CCC1(C)C` [Ethyl safranate, ethyl 2,6,6-trimethylcyclohexa-1,3-diene-1-carboxylate], the “% increase Ex 1 vs Ex A” value rises from -27% to 26%.

First: O=C1CCCCCCCCCCCCCCO1 [Exaltolide total, oxacyclohexadecan-2-one]
Second: CC(C)c1cccc(C(C)CC=O)c1 (stereo not shown) [Florhydral, 3-(3-isopropylphenyl)butanal]
The “% increase Ex 1 vs Ex A” value of the first is higher: -33% for the first, -60% for the second.

Going from `CCC(=O)OCC(C)(C)OC(C)C1CCCC(C)(C)C1` (stereo not shown) [Helvetolide, 2-(1-(3,3-dimethylcyclohexyl)ethoxy)-2-methylpropyl propionate] to `CC(=O)/C=C/C1=C(C)CCCC1(C)C` [Ionone beta, (E)-4-(2,6,6-trimethylcyclohex-1-en-1-yl)but-3-en-2-one], the “% increase Ex 1 vs Ex A” value rises from -50% to 18%.

Compared with `CCCC(=O)OCCC(C)C` [Isoamyl butyrate, isopentyl butyrate], `C=C(C)C1CC=C(C)C(=O)C1` (stereo not shown) [Laevo carvone, 2-methyl-5-(prop-1-en-2-yl)cyclohex-2-en-1-one] is lower in “% increase Ex 1 vs Ex A” value: 8685% for the first, 468% for the second.

Going from `CC(C=O)Cc1ccc(C(C)(C)C)cc1` (stereo not shown) [Lilial, 3-(4-(tert-butyl)phenyl)-2-methylpropanal] to `C=CC(C)(O)CCC=C(C)C` (stereo not shown) [Linalool, 3,7-dimethylocta-1,6-dien-3-ol], the “% increase Ex 1 vs Ex A” value rises from -55% to 42%.

Compared with `C=CC(C)(CCC=C(C)C)OC(=O)CC` (stereo not shown) [Linalyl propionate, 3,7-dimethylocta-1,6-dien-3-yl propionate], `CC(=O)c1ccc2ccccc2c1` [Methyl Beta-napthyl ketone, 1-(naphthalen-2-yl)ethan-1-one] is higher in “% increase Ex 1 vs Ex A” value: -50% for the first, 268% for the second.

Going from `COC(=O)c1ccccc1O` [Methyl salicylate, methyl 2-hydroxybenzoate] to `CCCCCCCC=O` [Octyl Aldehyde, octanal], the “% increase Ex 1 vs Ex A” value falls from 915% to 16%.

Compared with `COc1ccc(C)cc1` [Para cresyl methyl ether, 1-methoxy-4-methylbenzene], `CC(C)(O)CCc1ccccc1` [Phenyl ethyl dimethyl carbinol, 2-methyl-4-phenylbutan-2-ol] is lower in “% increase Ex 1 vs Ex A” value: 13731% for the first, 1106% for the second.

With `CCOC(=O)C1OC1(C)c1ccccc1` (stereo not shown) [Ethyl methyl phenyl glycidate, ethyl 3-methyl-3-phenyloxirane-2-carboxylate] the “% increase Ex 1 vs Ex A” value was “inf”.
